Four sequences from US20070128217A1 (priority 2003, published 2007) can be followed below.

Assay [1] deals with antibodies in sera from SARS patients (sera 1a, 1b, 2, 6, 37, 62, London, SARS-yellow, SARS-green). It is filed as binding, human.
The test system of assay [2] is control sera (pooled serum of ten healthy LUMC hospital workers; commercial negative donor pooled serum from the Dutch bloodbank). Format: binding, human.
Assay [3] deals with rabbit serum obtained by immunizing a rabbit with the SARS-CoV strain Frankfurt 1. It is filed as binding. Also on record: Binding of a rabbit serum to linear peptides / Binding of a rabbit serum to looped peptides / Rabbit serum linear peptides / Rabbit serum looped peptides / Binding of a rabbit serum to linear peptides of protein N of SARS-CoV Urbani (Rabbit serum linear peptides) / Binding of a rabbit serum to looped/cyclic peptides of protein N of SARS-CoV Urbani (Rabbit serum looped peptides): unit not given here.

On to VTLAILTALRLCAYC, for which, in assay [1], the “Binding of serum 1a to linear peptides of protein E of SARS-CoV Urbani” value came out at 0.6, the “Binding of serum 1a to looped/cyclic peptides of protein E of SARS-CoV Urbani” value came to 0.7, the “Binding of serum 1b to linear peptides of protein E of SARS-CoV Urbani” value is 0.5 and the “Binding of serum 1b to looped/cyclic peptides of protein E of SARS-CoV Urbani” value is listed as 0.5. Besides, in assay [1], the “Binding of serum 2 to linear peptides of protein E of SARS-CoV Urbani” value is reported as 0.6, the “Binding of serum 2 to looped/cyclic peptides of protein E of SARS-CoV Urbani” value is given as 0.9, the “Binding of serum 6 to linear peptides of protein E of SARS-CoV Urbani” value is given as 0.3 and the “Binding of serum 6 to looped/cyclic peptides of protein E of SARS-CoV Urbani” value is 0.6. In assay [1], the “Binding of serum 37 to linear peptides of protein E of SARS-CoV Urbani” value is 0.4, the “Binding of serum 37 to looped/cyclic peptides of protein E of SARS-CoV Urbani” value was determined as 0.6, the “Binding of serum 62 to linear peptides of protein E of SARS-CoV Urbani” value worked out at 0.4 and the “Binding of serum 62 to looped/cyclic peptides of protein E of SARS-CoV Urbani” value worked out at 0.8. Besides, in assay [1], the “Binding of serum London to linear peptides of protein E of SARS-CoV Urbani” value is given as 0.5, the “Binding of serum London to looped/cyclic peptides of protein E of SARS-CoV Urbani” value came to 0.5, the “Binding of serum SARS-green to linear peptides of protein E of SARS-CoV Urbani” value is 0.5 and the “Binding of serum SARS-green to looped/cyclic peptides of protein E of SARS-CoV Urbani” value was determined as 0.5. In assay [1], the “Binding of serum SARS-yellow to linear peptides of protein E of SARS-CoV Urbani” value was determined as 0.2 and the “Binding of serum SARS-yellow to looped/cyclic peptides of protein E of SARS-CoV Urbani” value worked out at 0.7. Also, in assay [2], the “Binding of Control Serum Blood-Bank to Looped peptides” value was 0.9, the “Binding of Control serum Blood-bank to linear peptides” value was 0.5, the “Binding of Control serum LUMC to linear peptides” value was 0.6 and the “Binding of Control serum LUMC to looped peptides” value was 0.8. Also, in assay [3], the “Binding of a rabbit serum to linear peptides” value is 0.1 and the “Binding of a rabbit serum to looped peptides” value amounted to 0.4.
As to FLAFVVFLLVTLAIL, in assay [1], the “Binding of serum 1a to linear peptides of protein E of SARS-CoV Urbani” value is recorded as 0.7, the “Binding of serum 1a to looped/cyclic peptides of protein E of SARS-CoV Urbani” value came to 0.5, the “Binding of serum 1b to linear peptides of protein E of SARS-CoV Urbani” value is 0.5 and the “Binding of serum 1b to looped/cyclic peptides of protein E of SARS-CoV Urbani” value stood at 0.5. Also, in assay [1], the “Binding of serum 2 to linear peptides of protein E of SARS-CoV Urbani” value came out at 0.2, the “Binding of serum 2 to looped/cyclic peptides of protein E of SARS-CoV Urbani” value is listed as 0.6, the “Binding of serum 6 to linear peptides of protein E of SARS-CoV Urbani” value is reported as 0.4 and the “Binding of serum 6 to looped/cyclic peptides of protein E of SARS-CoV Urbani” value is recorded as 0.5. Also, in assay [1], the “Binding of serum 37 to linear peptides of protein E of SARS-CoV Urbani” value turned out to be 0.3, the “Binding of serum 37 to looped/cyclic peptides of protein E of SARS-CoV Urbani” value is 0.6, the “Binding of serum 62 to linear peptides of protein E of SARS-CoV Urbani” value was found to be 0.1 and the “Binding of serum 62 to looped/cyclic peptides of protein E of SARS-CoV Urbani” value is 0.7. Besides, in assay [1], the “Binding of serum London to linear peptides of protein E of SARS-CoV Urbani” value worked out at 0.4, the “Binding of serum London to looped/cyclic peptides of protein E of SARS-CoV Urbani” value is 0.4, the “Binding of serum SARS-green to linear peptides of protein E of SARS-CoV Urbani” value is listed as 0.7 and the “Binding of serum SARS-green to looped/cyclic peptides of protein E of SARS-CoV Urbani” value is given as 0.4. Besides, in assay [1], the “Binding of serum SARS-yellow to linear peptides of protein E of SARS-CoV Urbani” value amounted to 0.3 and the “Binding of serum SARS-yellow to looped/cyclic peptides of protein E of SARS-CoV Urbani” value was found to be 0.5. Moreover, in assay [2], the “Binding of Control Serum Blood-Bank to Looped peptides” value came out at 0.8, the “Binding of Control serum Blood-bank to linear peptides” value turned out to be 0.4, the “Binding of Control serum LUMC to linear peptides” value was determined as 0.4 and the “Binding of Control serum LUMC to looped peptides” value is 0.6. Also, in assay [3], the “Binding of a rabbit serum to linear peptides” value was 0.0 and the “Binding of a rabbit serum to looped peptides” value is listed as 0.2.
Consider MYSFVSEETGTLIVN, for which, in assay [1], the “Binding of serum 1a to linear peptides of protein E of SARS-CoV Urbani” value is on record as 0.8, the “Binding of serum 1a to looped/cyclic peptides of protein E of SARS-CoV Urbani” value was found to be 0.7, the “Binding of serum 1b to linear peptides of protein E of SARS-CoV Urbani” value worked out at 0.8 and the “Binding of serum 1b to looped/cyclic peptides of protein E of SARS-CoV Urbani” value amounted to 0.5. In addition, in assay [1], the “Binding of serum 2 to linear peptides of protein E of SARS-CoV Urbani” value turned out to be 0.6, the “Binding of serum 2 to looped/cyclic peptides of protein E of SARS-CoV Urbani” value is listed as 0.6, the “Binding of serum 6 to linear peptides of protein E of SARS-CoV Urbani” value is listed as 0.6 and the “Binding of serum 6 to looped/cyclic peptides of protein E of SARS-CoV Urbani” value came out at 0.5. For the same sequence, in assay [1], the “Binding of serum 37 to linear peptides of protein E of SARS-CoV Urbani” value was found to be 0.8, the “Binding of serum 37 to looped/cyclic peptides of protein E of SARS-CoV Urbani” value is reported as 0.7, the “Binding of serum 62 to linear peptides of protein E of SARS-CoV Urbani” value amounted to 0.8 and the “Binding of serum 62 to looped/cyclic peptides of protein E of SARS-CoV Urbani” value came out at 0.8. For the same sequence, in assay [1], the “Binding of serum London to linear peptides of protein E of SARS-CoV Urbani” value came to 0.6, the “Binding of serum London to looped/cyclic peptides of protein E of SARS-CoV Urbani” value was determined as 0.4, the “Binding of serum SARS-green to linear peptides of protein E of SARS-CoV Urbani” value is recorded as 0.6 and the “Binding of serum SARS-green to looped/cyclic peptides of protein E of SARS-CoV Urbani” value came out at 0.4. Also, in assay [1], the “Binding of serum SARS-yellow to linear peptides of protein E of SARS-CoV Urbani” value is 0.1 and the “Binding of serum SARS-yellow to looped/cyclic peptides of protein E of SARS-CoV Urbani” value is given as 0.8. In assay [2], the “Binding of Control Serum Blood-Bank to Looped peptides” value is 0.6, the “Binding of Control serum Blood-bank to linear peptides” value is 0.8, the “Binding of Control serum LUMC to linear peptides” value was 0.7 and the “Binding of Control serum LUMC to looped peptides” value was found to be 0.8. Besides, in assay [3], the “Binding of a rabbit serum to linear peptides” value was found to be 0.5 and the “Binding of a rabbit serum to looped peptides” value is on record as 0.2.
For TALRLCAYCCNIVNV, in assay [1], the “Binding of serum 1a to linear peptides of protein E of SARS-CoV Urbani” value came out at 0.7, the “Binding of serum 1a to looped/cyclic peptides of protein E of SARS-CoV Urbani” value is recorded as 0.7, the “Binding of serum 1b to linear peptides of protein E of SARS-CoV Urbani” value turned out to be 0.5 and the “Binding of serum 1b to looped/cyclic peptides of protein E of SARS-CoV Urbani” value came out at 0.4. In addition, in assay [1], the “Binding of serum 2 to linear peptides of protein E of SARS-CoV Urbani” value is on record as 0.5, the “Binding of serum 2 to looped/cyclic peptides of protein E of SARS-CoV Urbani” value was determined as 0.8, the “Binding of serum 6 to linear peptides of protein E of SARS-CoV Urbani” value is 0.4 and the “Binding of serum 6 to looped/cyclic peptides of protein E of SARS-CoV Urbani” value stood at 0.6. Further, in assay [1], the “Binding of serum 37 to linear peptides of protein E of SARS-CoV Urbani” value stood at 0.5, the “Binding of serum 37 to looped/cyclic peptides of protein E of SARS-CoV Urbani” value came out at 0.7, the “Binding of serum 62 to linear peptides of protein E of SARS-CoV Urbani” value is on record as 0.5 and the “Binding of serum 62 to looped/cyclic peptides of protein E of SARS-CoV Urbani” value amounted to 0.9. Further, in assay [1], the “Binding of serum London to linear peptides of protein E of SARS-CoV Urbani” value is given as 0.5, the “Binding of serum London to looped/cyclic peptides of protein E of SARS-CoV Urbani” value amounted to 0.5, the “Binding of serum SARS-green to linear peptides of protein E of SARS-CoV Urbani” value stood at 0.6 and the “Binding of serum SARS-green to looped/cyclic peptides of protein E of SARS-CoV Urbani” value came out at 0.7. In assay [1], the “Binding of serum SARS-yellow to linear peptides of protein E of SARS-CoV Urbani” value stood at 0.2 and the “Binding of serum SARS-yellow to looped/cyclic peptides of protein E of SARS-CoV Urbani” value came out at 0.9. In assay [2], the “Binding of Control Serum Blood-Bank to Looped peptides” value was 0.7, the “Binding of Control serum Blood-bank to linear peptides” value worked out at 0.5, the “Binding of Control serum LUMC to linear peptides” value is 0.6 and the “Binding of Control serum LUMC to looped peptides” value is given as 0.7. In assay [3], the “Binding of a rabbit serum to linear peptides” value was determined as 0.2 and the “Binding of a rabbit serum to looped peptides” value is on record as 0.4.
